Structures are written as SMILES.

One data set relates to CYP3A4. Further details: method as in PMID 25858508. The settings on record: human liver microsomes; cited from earlier work.
The test system of another data set is CYP2B/3A. The experiment in a line: CYP2B/3A (BROD activity, benzyloxyresorufin O-debenzylation) in human liver microsomes. The format is in vitro ADME. Conditions: probe benzyloxyresorufin. As to the method: (§1) Enzyme activities were assayed in human and rat liver cytosolic and microsomal fractions. The enzyme assays (each performed in 4–8 replicates) were repeated three times (HPLC measurement of CYP activities was repeated only twice, Table 3). Inhibition studies were carried out by incubation of specific substrates in the presence of sesquiterpenes (in the range 0–100 µM).
(§2) Enzyme activities of individual CYP forms were measured according to established protocols. The following microsomal CYP activities were tested: CYP2A6, coumarin 7-hydroxylation; CYP2B6, 7-ethoxy-4-(trifluoromethyl)coumarin 7-deethylation, CYP2C9, diclofenac 4′-hydroxylation, CYP2C19 assay, S-mephenytoin 4′-hydroxylation, CYP2D6 on bufuralol 1′-hydroxylation, CYP2E1, chlorzoxazone 6-hydroxylation and CYP3A4, testosterone 6β-hydroxylation, and midazolam 1′-hydroxylation. Activities were measured using the Prominence HPLC system (Shimadzu, Kyoto, Japan), equipped with a LiChroCART 250-4 LiChrospher 100 RP-18 column or Chromolith®HighResolution RP-18 end-capped column (Merck, Darmstadt, Germany) and UV or fluorescence detection, according to the cited literature. Further incubation details are described either in the corresponding references, as well as in the papers from this laboratory e.g., [42, 43, 44]. CYP1A2, 7-ethoxyresorufin O-deethylation, and CYP3A4/2B6 (human), CYP2B1 (rat), benzyloxyresorufin O-debenzylation were measured using the microplate reader Tecan Infinite M200 (Tecan Group; Mannedorf, Switzerland).
Sesquiterpenes CNER, TNER and FAR, non-volatile liquids, were pipetted, and proper concentration was calculated according to density. All compounds were dissolved in DMSO. The final solvent concentration in the inhibition assays was 1%, which had no effect on the enzyme activity (data not shown). Non-enzymatic interference of sesquiterpenes with some compounds in the reaction mixtures (e.g., fluorescence enhancing or quenching) was considered and excluded. All experiments were performed in three replicates, if not stated otherwise.
(§3) CNER, TNER and FAR at a fixed concentration of 100 µM were screened for inhibition of cytosolic AKR1A1, AKR1C, CBR1, NQO1, SULT, and GST, and microsomal CYPs and UGT. The degree of inhibition caused by sesquiterpenes was compared with non-inhibited control reactions, which contained solvent without sesquiterpenes.
The concentration of sesquiterpenes required for 50% inhibition of enzyme activity, the IC50 value, was determined. Their final concentrations in the reaction mixture were proposed to cover the entire inhibitory range of these compounds (1–100 µM). The IC50 values for each sesquiterpene were determined by plotting sigmoidal dose response curves of specific enzyme activity vs. logarithm of sesquiterpene concentration using GraphPad Prism version 6.07 for Windows (GraphPad Software Inc., La Jolla, CA, USA).
(§4) The kinetic inactivation study of the CYP1A2 (EROD activity) and CYP2B/3A (BROD activity), both in rat and human, with TNER, was performed to find out the mechanism of enzyme inhibition by this sesquiterpene. Mechanism of EROD and BROD inhibition was tested at the final ethoxyresorufin or benzyloxyresorufin concentrations 0.5–5.0 µM. The concentration of TNER was 5.0 µM.
(§5) Experimental data were fitted to the Michaelis-Menten equation, basic kinetic parameters were determined using the program GraphPad Prism version 6.07 for Windows. The type of inhibition was estimated using a Lineweaver-Burk (double-reciprocal) plot.

The subject of a further data set is certain CYPs. Further details: method as in PMID 21287405. Conditions: read-out: IC50, inhibition of certain CYPs; cited from earlier work.
The test system of the next data set is HeLa. Further details: method as in earlier work. The settings on record: HeLa cell line; cited from earlier work.
Another data set relates to Jurkat. More on the design: method as in earlier work. The settings on record: Jurkat cell line; cited from earlier work.
The next data set addresses T1, CYP1A2 (Homo sapiens, UniProt P05177).
T1 construct: Frozen liver (both rat and human) was thawed; from tissue; host or cells: human liver microsomal fraction
T1 sequence (P05177 1-516): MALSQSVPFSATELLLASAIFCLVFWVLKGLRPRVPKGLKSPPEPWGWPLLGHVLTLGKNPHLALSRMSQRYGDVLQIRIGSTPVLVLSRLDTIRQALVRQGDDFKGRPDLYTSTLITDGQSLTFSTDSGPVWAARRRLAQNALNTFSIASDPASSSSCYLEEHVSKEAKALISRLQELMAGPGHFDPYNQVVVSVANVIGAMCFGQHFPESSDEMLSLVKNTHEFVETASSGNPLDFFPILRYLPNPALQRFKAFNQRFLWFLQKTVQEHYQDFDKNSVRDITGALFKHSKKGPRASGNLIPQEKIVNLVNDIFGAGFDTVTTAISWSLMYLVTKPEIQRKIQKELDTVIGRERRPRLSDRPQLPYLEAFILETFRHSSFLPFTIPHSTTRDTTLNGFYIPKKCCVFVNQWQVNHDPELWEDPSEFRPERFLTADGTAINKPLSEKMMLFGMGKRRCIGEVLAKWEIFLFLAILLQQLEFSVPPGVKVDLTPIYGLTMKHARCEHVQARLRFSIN
The experiment in a line: CYP1A2 (EROD activity, 7-ethoxyresorufin O-deethylation) in human liver microsomes. Conditions: liver microsomes, probe 7-ethoxyresorufin; human, 5 µM inhibitor. The format is in vitro ADME. On the procedure:
as §1, §2
Sesquiterpenes CNER, TNER and FAR, non-volatile liquids, were pipetted, and proper concentration was calculated according to density. All compounds were dissolved in DMSO. […] All experiments were performed in three replicates, if not stated otherwise.
as §3
The concentration of sesquiterpenes required for 50% inhibition of enzyme activity, the IC50 value, was determined. […] The IC50 values for each sesquiterpene were determined by plotting sigmoidal dose response curves of specific enzyme activity vs. logarithm of sesquiterpene concentration using GraphPad Prism version 6.07 for Windows (GraphPad Software Inc., La Jolla, CA, USA).
as §4, §5

Consider `C=C1C(=O)O[C@@H]2C[C@@]3(C)CCC[C@H](C)C3=C[C@H]12` [alantolactone], for which the IC50 with CYP3A4 was 3600 nM.
Consider `CC(=O)N1CCN(c2ccc(OCC3COC(Cn4ccnc4)(c4ccc(Cl)cc4Cl)O3)cc2)CC1` (stereo not shown) [KET, ketoconazole, reference compound], for which, in the data set on CYP2B/3A (liver microsomes, human, 5 µM inhibitor), the inhibition at 5 µM worked out at 66%. The IC50 with CYP2B/3A (human liver microsomes) was found to be 2680 nM.
In the case of `CC1=CCC[C@]2(C)O[C@H]2CC(=C(C)C)C(=O)C1` [(4S,5S)-(+)-germacrone-4,5-epoxide], the IC50 with certain CYPs was 1000 nM.
As to `C=CC(C)(O)CC/C=C(\C)CCC=C(C)C` (stereo not shown) [NER, Nerolidol], the “concentration with strong anti-tumor effects” value in the data set with HeLa and in the data set on Jurkat was “less than 5 µM” each time.
For the compound `O=c1cc(-c2ccccc2)oc2c1ccc1ccccc12` [ANF, α-naphthoflavone, reference compound], the inhibition at 5 µM at CYP1A2 was 92%.
